This assay deals with human SOS1 (SOS1) with human K-RasG12C (Homo sapiens (Human), UniProt Q07889). The assay can be described thus: hK-RasG12C interaction assay with hSOS1 (HTRF). The conditions noted are these: GST-hK-RasG12C and His-hSOS1, 60 min incubation at 20° C, mean, read-out: K-RasG12C - SOS interaction assay IC50 - [mol/l] (mean). The format is binding. The method, then: Biochemical Assay: hK-RasG12C Interaction Assay with hSOS1
human SOS1 (SOS1) with human K-RasG12C, sequence (Q07889 564-1049): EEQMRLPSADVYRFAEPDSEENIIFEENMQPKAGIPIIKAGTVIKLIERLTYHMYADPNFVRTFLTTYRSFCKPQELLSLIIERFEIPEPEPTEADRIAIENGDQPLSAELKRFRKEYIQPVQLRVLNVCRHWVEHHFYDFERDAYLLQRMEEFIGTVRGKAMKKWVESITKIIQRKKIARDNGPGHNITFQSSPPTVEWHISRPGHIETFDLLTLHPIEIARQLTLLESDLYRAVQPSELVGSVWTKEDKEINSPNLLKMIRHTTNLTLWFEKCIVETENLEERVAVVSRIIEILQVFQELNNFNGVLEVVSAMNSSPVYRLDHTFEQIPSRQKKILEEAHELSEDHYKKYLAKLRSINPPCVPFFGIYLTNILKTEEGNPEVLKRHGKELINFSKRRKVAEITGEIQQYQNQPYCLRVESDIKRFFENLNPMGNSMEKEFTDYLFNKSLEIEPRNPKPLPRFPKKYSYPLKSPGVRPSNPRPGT
This assay quantifies the equilibrium interaction of human SOS1 (SOS1) with human K-Ras^G12C (K-RasG12C). Detection of the interaction is achieved by measuring homogenous time-resolved fluorescence resonance energy transfer (HTRF) from antiGST-Europium (FRET donor) bound to GST-K-RasG12C to anti-6His-XL665 bound to His-tagged hSOS1 (FRET-acceptor).
The assay buffer containes 5 mM HEPES pH 7.4 (Applichem), 150 mM NaCl (Sigma), 10 mM EDTA (Promega), 1 mM DTT (Thermofisher), 0.05% BSA Fraction V, pH 7.0, (ICN Biomedicals), 0.0025% (v/v) Igepal (Sigma) and 100 mM KF (FLUKA).
Concentrations of protein batches used are optimized to be within the linear range of the HTRF signal. A Ras working solution is prepared in assay buffer containing typically 10 nM GST-hK-RasG12C and 2 nM antiGST-Eu(K) (Cisbio, France). A SOS1 working solution is prepared in assay buffer containing typically 20 nM His-hSOS1 and 10 nM anti-6His-XL665 (Cisbio, France). An inhibitor control solution is prepared in assay buffer containing 10 nM anti-6His-XL665 without SOS1.
Fifty nl of a 100-fold concentrated solution of the test compound in DMSO are transferred into a black microtiter test plate (384 or 1536, Greiner Bio-One, Germany).
For this, either a Hummingbird liquid handler (Digilab, MA, USA) or an Echo acoustic system (Labcyte, CA, USA) is used.
All steps of the assay are performed at 20° C. A volume of 2.5 μl of the Ras working solution is added to all wells of the test plate using a Multidrop dispenser (Thermo Labsystems). After 2 min preincubation, 2.5 μl of the SOS1 working solution are added to all wells except for those wells at the side of the test plate that are subsequently filled with 2.5 μl of the inhibitor control solution. After 60 min incubation the fluorescence is measured with a Pherastar (BMG, Germany) using the HTRF module (excitation 337 nm, emission 1: 620 nm, emission 2: 665 nm).
The ratiometric data (emission 2 divided by emission 1) are normalized using the controls (DMSO=0% inhibition, inhibition control wells with inhibitor control solution=100% inhibition). […] IC50 values are calculated by 4-Parameter fitting using a commercial software package (Genedata Screener, Switzerland).
(Time-resolved FRET reads energy transfer from a long-lived donor to a nearby acceptor.)
With `CC(=O)N1CC2(C1)CN(c1cc3c(N[C@H](C)c4cccc(C(F)(F)CO)c4F)nc(C)nc3nc1C(F)(F)F)C2` [Example 24, 1-{6-[4-({(1R)-1-[3-(1,1-difluoro-2-hydroxyethyl)-2-fluorophenyl]ethyl}amino)-2-methyl-7-(trifluoromethyl)pyrido[2,3-d]pyrimidin-6-yl]-2,6-diazaspiro[3.3]heptan-2-yl}ethan-1-one], the IC50 stood at 2.8 nM.
The result for `CC(=O)N1CC=C(c2cnc3nc(C)nc(N[C@H](C)c4cccc(C(F)(F)F)c4C)c3c2)CC1` [Example 25, 1-{4-[2-methyl-4-({(1R)-1-[2-methyl-3-(trifluoromethyl)phenyl]ethyl}amino)pyrido[2,3-d]pyrimidin-6-yl]-3,6-dihydropyridin-1(2H)-yl}ethan-1-one] reads 5.78 nM; that for `CC(=O)N1CC=C(c2cnc3nc(C)nc(N[C@H](C)c4cccc(C(F)(F)F)c4C)c3c2)CC1` [Example 26, 1-{4-[2-methyl-4-({(1R)-1-[2-methyl-3-(trifluoromethyl)phenyl]ethyl}amino)pyrido[2,3-d]pyrimidin-6-yl]-3,6-dihydropyridin-1(2H)-yl}ethan-1-one hydrogen], 5.75 nM; that for `CC(=O)N1CC2(CC=C(c3cnc4nc(C)nc(N[C@H](C)c5cccc(C(F)(F)F)c5C)c4c3)CC2)C1` [Example 27, 1-{7-[2-methyl-4-({(1R)-1-[2-methyl-3-(trifluoromethyl)phenyl]ethyl}amino)pyrido[2,3-d]pyrimidin-6-yl]-2-azaspiro[3.5]non-6-en-2-yl}ethan-1-one], 7.96 nM.
Consider `CC(=O)N1CC2(CCC(c3cnc4nc(C)nc(N[C@H](C)c5cccc(C(F)(F)F)c5C)c4c3)CC2)C1` [Example 28, 1-{7-[2-methyl-4-({(1R)-1-[2-methyl-3-(trifluoromethyl)phenyl]ethyl}amino)pyrido[2,3-d]pyrimidin-6-yl]-2-azaspiro[3.5]nonan-2-yl}ethan-1-one], for which the IC50 is 9.4 nM.
The result for `CC(=O)N1CC2(C1)CN(c1cnc3nc(C)nc(N[C@H](C)c4cccc(C(F)F)c4F)c3c1)C2` [Example 29, 1-{6-[4-({(1R)-1-[3-(difluoromethyl)-2-fluorophenyl]ethyl}amino)-2-methylpyrido[2,3-d]pyrimidin-6-yl]-2,6-diazaspiro[3.3]heptan-2-yl}ethan-1-one] reads 25.6 nM.
The result for `CC(=O)N1CC=C(c2cnc3nc(C)nc(N[C@H](C)c4cccc(C(F)(F)F)c4C)c3c2)C1` [Example 30, 1-{3-[2-methyl-4-({(1R)-1-[2-methyl-3-(trifluoromethyl)phenyl]ethyl}amino)pyrido[2,3-d]pyrimidin-6-yl]-2,5-dihydro-1H-pyrrol-1-yl}ethan-1-one] reads 38 nM.
Regarding `COc1cnc2nc(C)nc(N[C@H](C)c3cccc(C(F)(F)F)c3C)c2c1` [Example 32, 6-methoxy-2-methyl-N-{(1R)-1-[2-methyl-3-(trifluoromethyl)phenyl]ethyl}pyrido[2,3-d]pyrimidin-4-amine], the IC50 was found to be 66.4 nM.
The result for `Cc1nc(N[C@H](C)c2cccc(C(F)(F)F)c2C)c2cc(N(C)S(C)(=O)=O)cnc2n1` [Example 33, N-methyl-N-[2-methyl-4-({(1R)-1-[2-methyl-3-(trifluoromethyl)phenyl]ethyl}amino)pyrido[2,3-d]pyrimidin-6-yl]methanesulfonamide] reads 27.9 nM.
In the case of `Cc1nc(N[C@H](C)c2cccc(C(F)(F)F)c2C)c2cc(N3CCCS3(=O)=O)cnc2n1` [Example 34, 2-[2-methyl-4-({(1R)-1-[2-methyl-3-(trifluoromethyl)phenyl]ethyl}amino)pyrido[2,3-d]pyrimidin-6-yl]-1 lambda^6,2-thiazolidine-1,1-dione], the IC50 worked out at 13 nM.
For `CC(=O)N1CCN(c2cnc3nc(C)nc(N[C@H](C)c4cccc(C(F)(F)F)c4C)c3c2)CC1` [Example 35, 1-{4-[2-methyl-4-({(1R)-1-[2-methyl-3-(trifluoromethyl)phenyl]ethyl}amino)pyrido[2,3-d]pyrimidin-6-yl]piperazin-1-yl}ethan-1-one] the value was 7.71 nM.
Regarding `CC(=O)N1CC[N+]([O-])(c2cnc3nc(C)nc(N[C@H](C)c4cccc(C(F)(F)F)c4C)c3c2)CC1` [Example 36, 1-{4-[2-methyl-4-({(1R)-1-[2-methyl-3-(trifluoromethyl)phenyl]ethyl}amino)pyrido[2,3-d]pyrimidin-6-yl]-4-oxo-4lambda^5-piperazin-1-yl}ethan-1-one], the IC50 came to 6.46 nM.
On to `CC(=O)N1CC2(C1)CN(c1cc3c(N[C@H](C)c4cccc(C(F)F)c4F)nc(C)nc3nc1C)C2` [Example 37, 1-{6-[4-({(1R)-1-[3-(difluoromethyl)-2-fluorophenyl]ethyl}amino)-2,7-dimethylpyrido[2,3-d]pyrimidin-6-yl]-2,6-diazaspiro[3.3]heptan-2-yl}ethan-1-one], for which the IC50 is 8.47 nM.
For `COc1cc2c(N[C@H](C)c3cccc(C(F)(F)F)c3C)nc(C)nc2nc1C` [Example 38, 6-methoxy-2,7-dimethyl-N-{(1R)-1-[2-methyl-3-(trifluoromethyl)phenyl]ethyl}pyrido[2,3-d]pyrimidin-4-amine] the value was 46.3 nM.
The result for `Cc1nc(N[C@H](C)c2cccc(C(F)F)c2F)c2cc(N3CCCS3(=O)=O)c(C)nc2n1` [Example 39, 2-[4-({(1R)-1-[3-(difluoromethyl)-2-fluorophenyl]ethyl}amino)-2,7-dimethylpyrido[2,3-d]pyrimidin-6-yl]-1 lambda^6,2-thiazolidine-1,1-dione] reads 16.2 nM.
The result for `CC(=O)N1CC(c2cnc3nc(C)nc(N[C@H](C)c4cccc(C(F)(F)F)c4C)c3c2)C1` [Example 40, 1-{3-[2-methyl-4-({(1R)-1-[2-methyl-3-(trifluoromethyl)phenyl]ethyl}amino)pyrido[2,3-d]pyrimidin-6-yl]azetidin-1-yl}ethan-1-one] reads 16.1 nM; that for `CC(=O)N1CC=C(c2cc3c(N[C@H](C)c4cccc(C(F)(F)F)c4C)nc(C)nc3nc2C(F)(F)F)CC1` [Example 41, 1-{4-[2-methyl-4-({(1R)-1-[2-methyl-3-(trifluoromethyl)phenyl]ethyl}amino)-7-(trifluoromethyl)pyrido[2,3-d]pyrimidin-6-yl]-3,6-dihydropyridin-1(2H)-yl}ethan-1-one], 23 nM; that for `CC(=O)N1CCC(c2cc3c(N[C@H](C)c4cccc(C(F)(F)F)c4C)nc(C)nc3nc2C(F)(F)F)CC1` [Example 42, 1-{4-[2-methyl-4-({(1R)-1-[2-methyl-3-(trifluoromethyl)phenyl]ethyl}amino)-7-(trifluoromethyl)pyrido[2,3-d]pyrimidin-6-yl]piperidin-1-yl}ethan-1-one], 28.9 nM.
As for `CC(=O)N1CC=C(c2cnc3nc(C)nc(N[C@H](C)c4cccc(C(F)F)c4F)c3c2)CC1` [Example 43, 1-{4-[4-({(1R)-1-[3-(difluoromethyl)-2-fluorophenyl]ethyl}amino)-2-methylpyrido[2,3-d]pyrimidin-6-yl]-3,6-dihydropyridin-1(2H)-yl}ethan-1-one], the IC50 was 5.2 nM.
`CC(=O)N1CCC(c2cnc3nc(C)nc(N[C@H](C)c4cccc(C(F)F)c4F)c3c2)CC1` [Example 44, 1-{4-[4-({(1R)-1-[3-(difluoromethyl)-2-fluorophenyl]ethyl}amino)-2-methylpyrido[2,3-d]pyrimidin-6-yl]piperidin-1-yl}ethan-1-one]: the IC50 stood at 8.43 nM.
For `Cc1nc(N[C@H](C)c2cccc(C(F)(F)F)c2C)c2cc(-c3cncnc3)cnc2n1` [Example 45, 2-methyl-N-{(1R)-1-[2-methyl-3-(trifluoromethyl)phenyl]ethyl}-6-(pyrimidin-5-yl)pyrido[2,3-d]pyrimidin-4-amine] the value was 21.1 nM.
The result for `CC(=O)N1CC=C(c2cnc3nc(C)nc(N[C@H](C)c4cccc(C(F)(F)C(C)(C)O)c4F)c3c2)CC1` [Example 46, 1-{4-[4-({(1R)-1-[3-(1,1-difluoro-2-hydroxy-2-methylpropyl)-2-fluorophenyl]ethyl}amino)-2-methylpyrido[2,3-d]pyrimidin-6-yl]-3,6-dihydropyridin-1(2H)-yl}ethan-1-one] reads 2.7 nM; that for `CC(=O)N1CCC(c2cnc3nc(C)nc(N[C@H](C)c4cccc(C(F)(F)C(C)(C)O)c4F)c3c2)CC1` [Example 47, 1-{4-[4-({(1R)-1-[3-(1,1-difluoro-2-hydroxy-2-methylpropyl)-2-fluorophenyl]ethyl}amino)-2-methylpyrido[2,3-d]pyrimidin-6-yl]piperidin-1-yl}ethan-1-one], 4 nM.

The record behind these values is US20230357239A1, “PYRIDO[2,3-D]PYRIMIDIN-4-AMINES AS SOS1 INHIBITORS” (Bayer Aktiengesellschaft, priority 2020, published 2023).
